pKi: −log10 of the molar value. Active and inactive are the calls of the source. The rule behind the calls is not given here.

For assay [1], the target named is Sigma non-opioid intracellular receptor 1 (Cavia porcellus, UniProt Q60492). As to the kind of experiment: Displacement of [3H](+)-pentazocine from sigma-1 receptor in guinea pig brain cortex after 120 mins by scintillation counting analysis.
Assay [2] can be described thus: Displacement of [3H]-DTG from sigma-2 receptor in Sprague-Dawley rat liver membranes after 120 mins by scintillation counting analysis. The assay is classed as cell membranes, Membrane. (Displacement assays read how much labelled ligand stays bound in the presence of the test substance.)
Assay [3] deals with Sigma non-opioid intracellular receptor 1 (Rattus norvegicus) (UniProt Q9R0C9). As to the kind of experiment: Agonist activity at sigma 1 receptor in rat PC12 cells assessed as potentiation of NGF-induced neurite outgrowth at 2.5 to 5 uM after 5 days by phase contrast microscopic analysis relative to NGF-treated control. Particulars: PC-12. It is filed as cell-based.
The target is the same in assay [4]. Description: Agonist activity at sigma 1 receptor in rat PC12 cells assessed as potentiation of NGF-induced neurite outgrowth at 2.5 to 5 uM after 5 days by phase contrast microscopic analysis. The assay is classed as cell-based. Particulars: PC-12.
The target is the same in assay [5]. Description: Agonist activity at sigma 1 receptor in rat PC12 cells assessed as potentiation of NGF-induced neurite outgrowth at 2.5 to 5 uM after 5 days by phase contrast microscopic analysis in presence of sigma 1 antagonist NE-100. The assay is classed as cell-based. Particulars: PC-12.
The nature of assay [6]: Selectivity ratio of Ki for sigma-2 receptor in Sprague-Dawley rat liver membrane to Ki for sigma-1 receptor in guinea pig brain cortex. The assay is classed as cell membranes.

Sigma non-opioid intracellular receptor 1 (Rattus norvegicus), sequence (Q9R0C9 whole entry): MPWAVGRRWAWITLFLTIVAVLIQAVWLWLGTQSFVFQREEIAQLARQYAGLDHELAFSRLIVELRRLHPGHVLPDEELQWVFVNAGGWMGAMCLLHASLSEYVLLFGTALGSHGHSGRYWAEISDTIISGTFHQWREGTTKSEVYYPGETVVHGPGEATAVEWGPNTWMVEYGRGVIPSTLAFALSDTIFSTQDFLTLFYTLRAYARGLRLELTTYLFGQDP
Sigma non-opioid intracellular receptor 1, sequence (Q60492 whole entry): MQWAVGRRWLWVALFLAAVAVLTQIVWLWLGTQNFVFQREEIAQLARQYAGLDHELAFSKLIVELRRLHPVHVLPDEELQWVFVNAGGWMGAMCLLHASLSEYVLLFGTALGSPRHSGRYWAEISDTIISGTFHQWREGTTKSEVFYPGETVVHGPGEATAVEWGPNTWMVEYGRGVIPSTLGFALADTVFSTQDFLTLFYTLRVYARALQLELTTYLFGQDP

Consider `C[C@H](CCN1CCCCC1)c1ccc(-c2ccccc2)cc1`, for which the pKi (in general, −log10 of the Ki, conventionally taken in molar units) in assay [1] was 8.74; in assay [2], 7.35.

For the compound `COc1ccc2cc([C@](C)(O)CCN(C)C)ccc2c1`, the pKi in assay [1] was 7.29; in assay [2], 6.88.

For `C[C@H]1N(C)CC[C@]1(O)c1ccc2ccccc2c1`, the pKi in assay [1] is 7.07; in assay [2], 7.03.

Regarding `CC1N(C)CCC1(O)c1ccc2ccccc2c1` (racemic), the pKi in assay [1] is 7.19; in assay [2], 6.44.

For the compound `C[C@@](O)(CCN1CCCCC1)c1ccc(-c2ccccc2)cc1`, the outcome in assay [3] was inactive. In addition, the figures for the negative logarithm of the Ki (pKi) in assay [1] and in assay [2] were 7.41 and 5.37, respectively.

With `C[C@@H](CCN1CCCCC1)c1ccc(-c2ccccc2)cc1`, the pKi in assay [1] is 8.72; in assay [2], 7.01.

Consider `CN(C)CCC(C)(O)c1ccc2ccccc2c1` (racemic), for which the figures for the pKi in assay [1] and in assay [2] were 7.11 and 7.18, respectively.

Take `COc1ccc2cc([C@@]3(O)CCN(C)[C@@H]3C)ccc2c1`: the pKi is 5.82 in assay [1] and 5.92 in assay [2].

As for `COc1ccc2cc(C(C)(O)CCN(C)C)ccc2c1` (racemic), the results for the negative logarithm of the Ki (pKi) in assay [1] and in assay [2] were 7.39 and 7.01, respectively.

On to `CC(O)(CCN1CCCCC1)c1ccc(-c2ccccc2)cc1` (racemic), for which the result in assay [4] was Active. The outcome in assay [5] was inactive. In addition, the negative-log Ki (pKi) was 8.18 in assay [1] and 7.46 in assay [2].

On to `C[C@](O)(CCN1CCCCC1)c1ccc(-c2ccccc2)cc1`, for which the outcome in assay [4] was Active. Moreover, the result in assay [5] was inactive. Moreover, the Ratio Ki in assay [6] is 382. Also, the pKi in assay [1] is 8.33; in assay [2], 5.74.

Consider `CN(C)CC[C@](C)(O)c1ccc2ccccc2c1`, for which the pKi in assay [1] is 7.20; in assay [2], 7.12.

For the compound `COc1ccc2cc([C@]3(O)CCN(C)[C@H]3C)ccc2c1`, the pKi is 5.92 in assay [1] and 5.72 in assay [2].

As for `CN(C)CC[C@@](C)(O)c1ccc2ccccc2c1`, the pKi was 6.69 in assay [1] and 6.19 in assay [2].

Regarding `COc1ccc2cc(C3(O)CCN(C)C3C)ccc2c1` (configuration not stated), the pKi in assay [1] is 5.72; in assay [2], 5.82.

Take `COc1ccc2cc([C@@](C)(O)CCN(C)C)ccc2c1`: the pKi in assay [1] is 7.60; in assay [2], 5.96.

As to `C[C@@H]1N(C)CC[C@@]1(O)c1ccc2ccccc2c1`, the values for the pKi in assay [1] and in assay [2] were 7.59 and 6.36, respectively.

`CC(CCN1CCCCC1)c1ccc(-c2ccccc2)cc1` (racemic): the pKi was 9.05 in assay [1] and 6.99 in assay [2].

The values are drawn from ChEMBL document CHEMBL3621097, “A step forward in the sigma enigma: a role for chirality in the sigma1 receptorligand interaction?” (Medchemcomm, 2015).
